For one experiment, the target named is human GYS1 (Homo sapiens (Human), UniProt P13807). Briefly: GYS1 coupled enzyme assay (PK/LDH). The experiment is classed as biochemical. Particulars: recombinant hGYS1/GN1 protein; geometric mean of at least 2 assay runs. The text has this: (§1) The GYS1 coupled enzyme assay is a kinetic biochemical assay that indirectly quantifies the rate of glycogen synthesis by coupling the conversion of GYS1 substrate UDP-glucose into UDP with downstream enzymatic reactions. UDP is released from UDP-glucose as glucose monomers are linked into the growing glycogen strand by GYS1. The coupled assay then proceeds with pyruvate kinase utilizing UDP and phospho (enol) pyruvate (PEP) to form pyruvate. Lactate dehydrogenase then converts pyruvate and NADH into lactate and NAD+. Oxidation of NADH to NAD+ can be measured continuously with a plate reader by quantifying the decrease in NADH absorbance at 340 nm over time.
Compounds that inhibit the hGYS1 enzyme and, subsequently, the downstream conversion of NADH to NAD+, were tested using assay ready plates (black, clear bottom 384 well plates) in a final DMSO reaction volume of 2.5% DMSO. The Assay Buffer contained 50 mM Tris pH 7.5, 2 mM MgCl2, and 100 mM KCl. Fresh stocks of BSA at a final concentration of 0.02% and TCEP at 1 mM were added before splitting buffer into hGYS1 buffer and substrate buffer. To the hGYS1 buffer, rabbit liver glycogen was added at a final concentration of 0.2% glycogen. Glucose-6-Phosphate was added at 1 mM, recombinant hGYS1/GN1 protein was added at 50 nM to the substrate buffer, phosphoenolpyruvate (PEP) was added at 2 mM, UDP-Glucose was added at 0.8 mM, NADH) was added at 0.6 mM, and Pyruvate Kinase/Lactate Dehydrogenase was added at 20 units/mL. The reaction was initiated by mixing hGYS1 buffer and substrate buffer at a 1:1 ratio. Both buffers were plated using a liquid dispensing device with hGYS1 buffer plated first followed by the substrate buffer. Plates were spun briefly to eliminate air bubbles and are immediately read in continuous mode at an absorbance of 340 nm, for 10 time points in one-minute increments, for a total of 10 minutes. The slope from these 10 time points was normalized to the positive and negative control wells.
Unless otherwise specified, IC50 values are reported as the geometric mean of at least 2 assay runs on separate days. Each run represents the average of a technical replicate, where each compound was assayed twice in the same plate.

In the next experiment the target is human GYS2 (Homo sapiens (Human), UniProt P54840). Nature of the experiment: GYS2 coupled enzyme assay (PK/LDH). The experiment is classed as biochemical. Particulars: recombinant hGYS2/GN1 protein; geometric mean of at least 2 assay runs.
Description: as §1, with “GYS2” for “GYS1”, “GYS2.” for “GYS1.”
Compounds that inhibit the hGYS2 enzyme and, subsequently, the downstream conversion of NADH to NAD+, were tested using assay ready plates (black, clear bottom 384 well plates) in a final DMSO reaction volume of 2.5% DMSO. The Assay Buffer contained 50 mM Tris pH 7.5, 2 mM MgCl2, and 100 mM KCl. Fresh stocks of BSA at a final concentration of 0.02% and TCEP 1 mM were added before splitting buffer into hGYS2 buffer and substrate buffer. To the hGYS2 buffer, rabbit liver glycogen was added at a final concentration of 0.2% glycogen. Glucose-6-Phosphate was added at 2 mM, recombinant hGYS2/GN1 protein was added at 200 nM to the substrate buffer, phosphoenolpyruvate (PEP) was added at 2 mM, UDP-Glucose was added at 2 mM, NADH was added at 0.6 mM, and Pyruvate Kinase/Lactate Dehydrogenase was added at 20 units/mL. The reaction was initiated by mixing hGYS2 buffer and substrate buffer at a 1:1 ratio. Both buffers were plated using a liquid dispensing device with hGYS2 buffer plated first followed by the substrate buffer. Plates were spun briefly to eliminate air bubbles and are immediately read in continuous mode at an absorbance of 340 nm, for 10 time points in one-minute increments, for a total of 10 minutes. The slope from these 10 time points was normalized to the positive and negative control wells.
(§2) Unless otherwise specified, IC50 values are reported as the geometric mean of at least 2 assay runs on separate days. […] Unless otherwise specified, IC50 values are reported as the geometric mean of at least two assay runs on separate days. Each run represents the average of a technical replicate, where each compound was assayed twice in the same plate.

Experiment [1] concerns the target hGYS1 enzyme, glycogen synthesis in HeLa cells (Homo sapiens (Human), UniProt P13807). Nature of the experiment: GYS1 cell based assay (glycogen synthesis in HeLa cells, Glucose-glo). As to conditions: starved HeLa cells, 24 h incubation; geometric mean of at least 2 assay runs; read-out: Cellular IC50.
Description: The GYS1 cell based assay is a bioluminescent assay that quantifies the glucose resulting from glycogen digestion; the quantified glucose is an indirect measure of GYS1 glycogen synthesis. Newly synthesized glycogen is digested using Glucoamylase; the resulting glucose is quantified by using the Glucose-glo assay kit from Promega. Glucose-glo works by coupling glucose oxidation and NADH production with a bioluminescent system that is activated with NADH. Glucose is oxidized by Glucose dehydrogenase and the reaction reduces NAD+ to NADH; NADH activates Reductase which reduces a pro-luciferin Reductase Substrate to luciferin. Luciferin is detected in a luciferase reaction using Ultra-Glo rLuciferase and ATP, and the luminesce produced is proportional to the glucose in the sample. The luminescence is measured as a single point read in a plate reader.
Compounds that inhibit the hGYS1 enzyme and, subsequently, the glycogen synthesis in cells, were tested using assay ready plates (white, clear bottom 384 well plates) in a final DMSO reaction volume of 1% DMSO. Compounds in the assay ready plates were mixed with media with no additives, except for 20 mM glucose prior to cell addition. HeLa cells were starved in media with no additives, except for 1× Glutamax for 24 h. Starved HeLa cells were plated, in a 1:1 ratio to the media in the assay ready plate and incubated for 24 h at 37° C. and 5% CO2. Cells were washed in 1×PBS buffer and lysed in lysis buffer containing 50% 1×PBS and 25% 0.3 N HCl of the final volume in the well or reaction volume; cells were incubated with lysis buffer for 10 minutes and quenched with the remaining 25% of the reaction volume that consisted of 450 mM Tris pH 8.0. Lysates were mixed in a 1:1 ratio with Glucoamylase in 100 mM Sodium Acetate buffer, pH 5.3; the mixture was incubated for 1 h at 37° C. The digested lysate was mixed in a 1:1 ratio with Glucose-glo detection mixture as per vendor recommendations (Luciferase detection buffer, Reductase, Reductase substrate, Glucose dehydrogenase, and NAD) in read-out plates (solid white 384-well plates) and incubated for 1 h at RT. The plates were read using a plate reader with luminescence capabilities. Each compound concentration Relative Luminescence Unit (RLU) was averaged and normalized to the average RLU of the positive and negative controls to obtain a percentage inhibition. The normalized data vs. concentration was plotted; to determine the half-maximal concentration (IC50), the Levenberg-Marquardt algorithm was used to fit a Hill equation to the dose response data.
as §2

As usually defined, the IC50 is the concentration that gives 50% inhibition.

Sequence of human GYS1 (P13807 whole entry): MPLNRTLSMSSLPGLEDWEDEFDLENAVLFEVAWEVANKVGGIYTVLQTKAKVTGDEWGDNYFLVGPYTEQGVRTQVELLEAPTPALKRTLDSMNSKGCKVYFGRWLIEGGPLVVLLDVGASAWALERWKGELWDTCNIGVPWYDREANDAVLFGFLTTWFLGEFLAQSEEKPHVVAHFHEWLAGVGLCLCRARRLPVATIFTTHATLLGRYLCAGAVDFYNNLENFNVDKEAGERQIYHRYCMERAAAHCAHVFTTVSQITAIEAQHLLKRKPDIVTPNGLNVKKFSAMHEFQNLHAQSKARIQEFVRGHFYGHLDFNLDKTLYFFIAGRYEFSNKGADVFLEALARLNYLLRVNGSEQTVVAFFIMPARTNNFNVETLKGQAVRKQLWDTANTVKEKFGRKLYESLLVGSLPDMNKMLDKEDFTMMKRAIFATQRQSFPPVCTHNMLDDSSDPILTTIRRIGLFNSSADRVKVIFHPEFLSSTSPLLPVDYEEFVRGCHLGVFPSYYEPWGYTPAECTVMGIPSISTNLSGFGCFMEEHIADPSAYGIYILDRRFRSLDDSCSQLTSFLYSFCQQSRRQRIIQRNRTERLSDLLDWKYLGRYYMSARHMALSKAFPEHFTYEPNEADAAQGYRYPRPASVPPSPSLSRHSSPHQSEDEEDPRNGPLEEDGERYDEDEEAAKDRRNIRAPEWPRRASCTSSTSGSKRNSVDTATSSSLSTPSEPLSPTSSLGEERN
Sequence of human GYS1 (P46976 whole entry partner): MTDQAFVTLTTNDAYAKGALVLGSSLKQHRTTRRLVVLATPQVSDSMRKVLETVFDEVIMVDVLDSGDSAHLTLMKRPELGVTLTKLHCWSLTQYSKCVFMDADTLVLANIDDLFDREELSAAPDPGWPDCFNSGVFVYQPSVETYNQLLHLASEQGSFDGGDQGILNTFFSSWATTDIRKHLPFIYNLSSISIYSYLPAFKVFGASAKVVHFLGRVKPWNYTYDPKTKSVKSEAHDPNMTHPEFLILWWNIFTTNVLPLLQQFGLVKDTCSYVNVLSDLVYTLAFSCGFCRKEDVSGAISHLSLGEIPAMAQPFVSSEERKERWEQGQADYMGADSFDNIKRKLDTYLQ
Sequence of hGYS1 enzyme, glycogen synthesis in HeLa cells (P13807 whole entry): as the sequence (P13807 whole entry) above
Sequence of human GYS2 (P54840 whole entry): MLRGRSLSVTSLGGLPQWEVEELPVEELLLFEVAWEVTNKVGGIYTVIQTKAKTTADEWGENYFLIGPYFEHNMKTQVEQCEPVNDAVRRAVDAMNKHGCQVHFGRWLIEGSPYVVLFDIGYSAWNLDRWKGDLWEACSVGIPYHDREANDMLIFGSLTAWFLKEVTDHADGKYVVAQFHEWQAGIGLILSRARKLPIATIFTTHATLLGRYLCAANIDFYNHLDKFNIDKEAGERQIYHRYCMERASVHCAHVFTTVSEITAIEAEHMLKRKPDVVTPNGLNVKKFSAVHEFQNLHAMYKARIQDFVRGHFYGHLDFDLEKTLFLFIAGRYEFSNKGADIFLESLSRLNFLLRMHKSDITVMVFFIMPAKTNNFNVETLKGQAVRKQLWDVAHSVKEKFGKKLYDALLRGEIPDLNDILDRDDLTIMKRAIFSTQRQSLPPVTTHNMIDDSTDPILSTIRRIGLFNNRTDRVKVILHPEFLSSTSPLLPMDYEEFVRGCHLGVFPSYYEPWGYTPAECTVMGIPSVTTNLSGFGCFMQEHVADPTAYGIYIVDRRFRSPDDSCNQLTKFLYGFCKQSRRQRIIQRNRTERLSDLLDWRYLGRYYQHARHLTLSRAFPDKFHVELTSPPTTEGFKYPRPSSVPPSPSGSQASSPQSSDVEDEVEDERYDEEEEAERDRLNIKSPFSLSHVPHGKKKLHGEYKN
Sequence of human GYS2 (P46976 whole entry partner): as the sequence (P46976 whole entry partner) above

For `Cc1ccccc1[C@H](NC(=O)[C@@H]1CCC[C@@H]1C(=O)O)c1ccc(C2CC2)cc1` [Compound 26, (1S,2R)-2-(((R)-(4-cyclopropylphenyl)(o-tolyl)methyl)carbamoyl)cyclopentane-1-carboxylic acid], the IC50 amounted to 0.795 µM at human GYS1, 15.5 µM on human GYS2 and 21.6 µM in experiment [1].

Regarding `Cc1ccccc1[C@H](NC(=O)[C@@H]1CCC[C@@H]1C(=O)O)c1ccc(C(C)C)c(F)c1` [Compound 23, (1S,2R)-2-(((R)-(3-fluoro-4-isopropylphenyl)(o-tolyl)methyl)carbamoyl)cyclopentane-1-carboxylic acid], the IC50 on human GYS1 stood at 0.166 µM; on human GYS2, 8.48 µM; in experiment [1], 5.36 µM.

For `CC(C)c1ccc([C@@H](NC(=O)[C@@H]2CCC[C@@H]2C(=O)O)c2cccc3c2NC(=O)CC3)cc1` [Compound 31, (1S,2R)-2-(((R)-(4-isopropylphenyl)(2-oxo-1,2,3,4-tetrahydroquinolin-8-yl)methyl)carbamoyl)cyclopentane-1-carboxylic acid], the IC50 at human GYS1 is 1.09 µM; on human GYS2, more than 100 µM; in experiment [1], 12.3 µM.

Take `O=C(O)[C@H]1CCC[C@H]1C(=O)N[C@@H](c1ccccc1)c1ccc(C2CC2)c(F)c1` [Compound 17, (1S,2R)-2-(((S)-(4-cyclopropyl-3-fluorophenyl)(phenyl)methyl)carbamoyl)cyclopentane-1-carboxylic acid]: the IC50 at human GYS1 was 1.58 µM; at human GYS2, more than 100 µM; in experiment [1], 27.3 µM.

Regarding `O=C(O)[C@H]1CCC[C@H]1C(=O)N[C@@H](c1ccccc1)c1ccc(C2CCC2)c(F)c1` [Compound 18, (1S,2R)-2-(((S)-(4-cyclobutyl-3-fluorophenyl)(phenyl)methyl)carbamoyl)cyclopentane-1-carboxylic acid], the IC50 was 0.384 µM at human GYS1, 28.6 µM on human GYS2 and 16.6 µM in experiment [1].

Regarding `CC(C)c1ccc([C@@H](NC(=O)[C@@H]2CCC[C@@H]2C(=O)O)c2cccs2)cc1` [Compound 45, (1S,2R)-2-(((R)-(4-isopropylphenyl)(thiophen-2-yl)methyl)carbamoyl)cyclopentane-1-carboxylic acid], the results for the IC50 (on human GYS1; at human GYS2; in experiment [1]) were 0.364 µM, 98 µM and 6.6 µM, respectively.

Consider `CC(C)c1c(F)cc([C@@H](NC(=O)[C@@H]2CCC[C@@H]2C(=O)O)c2ccccc2)cc1F` [Compound 8, (1S,2R)-2-(((S)-(3,5-difluoro-4-isopropylphenyl)(phenyl)methyl)carbamoyl)cyclopentane-1-carboxylic acid], for which the figures for the IC50 (at human GYS1; at human GYS2; in experiment [1]) were 0.239 µM, more than 100 µM and 3.93 µM, respectively.

Consider `Cc1ccccc1[C@H](NC(=O)[C@@H]1CCC[C@@H]1C(=O)O)c1ccc(C(C)C)cn1` [Compound 22, (1S,2R)-2-(((S)-(5-isopropylpyridin-2-yl)(o-tolyl)methyl)carbamoyl)cyclopentane-1-carboxylic acid], for which the values for the IC50 (at human GYS1; at human GYS2; in experiment [1]) were 1.27 µM, 66.7 µM and 13.9 µM, respectively.

`COc1ccccc1[C@H](NC(=O)[C@@H]1CCC[C@@H]1C(=O)O)c1ccc(C(C)C)cc1` [Compound 39, (1S,2R)-2-(((R)-(4-isopropylphenyl)(2-methoxyphenyl)methyl)carbamoyl)cyclopentane-1-carboxylic acid]: the IC50 on human GYS1 came out at 3.4 µM; on human GYS2 it was 66.4 µM; in experiment [1], 41.3 µM.

For the compound `CC(C)c1ccc([C@@H](NC(=O)[C@@H]2CCC[C@@H]2C(=O)O)c2ccccc2)cc1F` [Compound 37, (1S,2R)-2-(((S)-(3-fluoro-4-isopropylphenyl)(phenyl)methyl)carbamoyl)cyclopentane-1-carboxylic acid], the IC50 on human GYS1 was 0.236 µM; at human GYS2, 72.8 µM; in experiment [1], 3.69 µM.

Values taken from patent US20260021085A1, “CYCLOALKYL CARBOXYLIC ACID DERIVATIVES AS INHIBITORS OF GLYCOGEN SYNTHASE 1 (GYS1) AND METHODS OF USE THEREOF” (Maze Therapeutics, Inc., priority 2022, published 2026).
